Patent EP3498273A1, “PHARMACEUTICAL COMPOSITION FOR MODULATING THE RESPONSE OF A GABA-A RECEPTOR” (Universität Wien, priority 2017, dated 2019)

Key:
[1] = molecular target: GABAA receptors composed of α1β2γ2S subunits (Homo sapiens, UniProt P14867+P47870); experiment: Two-microelectrode voltage clamp: IGABA enhancement in Xenopus laevis oocytes
[2] = molecular target: GABAA receptors composed of α1β1γ2S subunits (Homo sapiens, UniProt P14867+P18505); experiment: as above; settings: replacing β2/3 by β1; Emax and EC50 not determined
male C57BL/6N mice = experiment: Seizure threshold upon pentylenetetrazole (PTZ) tail-vein infusion; format: in vivo; settings: intraperitoneal, 30 min before the test, n = 4, control 39.5 ± 0.8
Method: Only male C57BL/6N mice (age 3-6 months) were used for determination of the seizure threshold. Intraperitoneal injection of control or compound-containing solutions was done 30 min before the test. Indicated doses in the results represent milligrams per kilogram body weight. Seizure threshold was determined by pentylenetetrazole (PTZ) tail-vein infusion on freely moving animals at a rate of 100 µl/min (10 mg/ml PTZ in saline, pH = 7.4). […] Animals were immediately killed by cervical displacement after onset of seizures. The seizure threshold dose was calculated from the infused dose in relation to body weight (mg/kg).

[3] = tested on: native GABAA receptors, primary cultures of dissociated hippocampal neurons; experiment: Whole-cell patch clamp on cultured hippocampal neurons (miniature IPSCs and tonic currents); format: cell-based; settings: 10 µM compound, holding potential -70 mV

GABAA receptors composed of α1β2γ2S subunits, sequence (P14867 28-456): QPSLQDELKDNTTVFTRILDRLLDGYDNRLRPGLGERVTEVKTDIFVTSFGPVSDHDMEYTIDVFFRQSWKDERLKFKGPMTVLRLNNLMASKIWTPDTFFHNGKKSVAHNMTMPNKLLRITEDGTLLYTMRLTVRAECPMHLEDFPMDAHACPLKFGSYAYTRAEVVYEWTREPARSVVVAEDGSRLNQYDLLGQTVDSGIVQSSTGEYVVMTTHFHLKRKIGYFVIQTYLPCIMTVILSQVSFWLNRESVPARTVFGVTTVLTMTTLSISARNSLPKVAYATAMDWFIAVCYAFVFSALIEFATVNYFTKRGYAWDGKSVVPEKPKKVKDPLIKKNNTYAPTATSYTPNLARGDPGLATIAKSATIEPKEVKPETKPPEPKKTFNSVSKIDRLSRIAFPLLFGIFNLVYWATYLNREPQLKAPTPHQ
GABAA receptors composed of α1β2γ2S subunits, sequence (P47870 26-474 isoform P47870-1 limits assumed): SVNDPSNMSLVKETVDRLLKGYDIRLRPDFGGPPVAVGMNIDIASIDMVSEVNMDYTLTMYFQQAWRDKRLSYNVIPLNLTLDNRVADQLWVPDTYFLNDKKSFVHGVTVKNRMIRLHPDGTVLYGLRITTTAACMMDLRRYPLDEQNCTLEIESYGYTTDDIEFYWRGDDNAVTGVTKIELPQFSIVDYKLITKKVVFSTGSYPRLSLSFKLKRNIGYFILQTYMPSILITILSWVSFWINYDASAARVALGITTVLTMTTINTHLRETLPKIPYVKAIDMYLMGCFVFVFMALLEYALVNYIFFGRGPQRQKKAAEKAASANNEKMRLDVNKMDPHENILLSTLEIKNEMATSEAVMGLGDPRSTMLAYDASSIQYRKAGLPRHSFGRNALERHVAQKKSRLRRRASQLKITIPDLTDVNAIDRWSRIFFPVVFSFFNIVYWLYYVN
GABAA receptors composed of α1β2γ2S subunits, sequence (P18507 40-467 isoform P18507-1 partner limits assumed): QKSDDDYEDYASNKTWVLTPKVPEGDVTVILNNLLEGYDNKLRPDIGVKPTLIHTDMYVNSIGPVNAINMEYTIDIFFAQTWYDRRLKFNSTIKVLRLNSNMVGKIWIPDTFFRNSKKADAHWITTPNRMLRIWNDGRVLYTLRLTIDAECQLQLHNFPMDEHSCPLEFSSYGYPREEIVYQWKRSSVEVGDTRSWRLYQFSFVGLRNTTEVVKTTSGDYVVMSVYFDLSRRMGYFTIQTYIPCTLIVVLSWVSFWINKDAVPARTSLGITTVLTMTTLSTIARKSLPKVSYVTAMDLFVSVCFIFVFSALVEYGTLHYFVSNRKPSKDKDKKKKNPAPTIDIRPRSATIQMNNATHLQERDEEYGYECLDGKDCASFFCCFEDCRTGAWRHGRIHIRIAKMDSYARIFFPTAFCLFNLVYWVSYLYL
GABAA receptors composed of α1β1γ2S subunits, sequence (P14867 28-456): as the sequence (P14867 28-456) above
GABAA receptors composed of α1β1γ2S subunits, sequence (P18505 26-474): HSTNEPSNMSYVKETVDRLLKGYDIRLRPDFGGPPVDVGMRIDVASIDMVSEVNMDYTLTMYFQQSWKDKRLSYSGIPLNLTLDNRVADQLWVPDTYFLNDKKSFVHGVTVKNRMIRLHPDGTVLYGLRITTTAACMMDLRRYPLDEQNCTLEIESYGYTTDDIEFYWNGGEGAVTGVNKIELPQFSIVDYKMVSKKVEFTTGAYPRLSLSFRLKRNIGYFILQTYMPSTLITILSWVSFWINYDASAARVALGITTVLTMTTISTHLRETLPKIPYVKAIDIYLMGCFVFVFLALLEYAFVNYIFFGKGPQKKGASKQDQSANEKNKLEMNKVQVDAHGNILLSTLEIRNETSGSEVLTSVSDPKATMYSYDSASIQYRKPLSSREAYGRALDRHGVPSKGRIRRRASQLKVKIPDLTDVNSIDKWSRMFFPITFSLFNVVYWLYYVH
GABAA receptors composed of α1β1γ2S subunits, sequence (P18507 40-467 isoform P18507-1 partner limits assumed): as the sequence (P18507 40-467 isoform P18507-1 partner limits assumed) above

- EC50 [1]: 9.9 ± 2.5 µM
- Emax ([1]; second β2/3 channel of Fig. 1B, printed as α1β3γ2S, n = 3, no unit at this value): 1804.9 ± 153.0%
- sensitivity of the resulting GABAA channels [2]: drastically reduced the sensitivity
Compound: C/C(=C/C#N)c1ccc(Cl)cc1Cl [Compound Z-2, (2Z)-3-(2,4-dichlorophenyl)but-2-enenitrile]
- seizure threshold (male C57BL/6N mice; 0.1 mg/kg body weight): 48.5 ± 2.3 mg/kg PTZ
- seizure threshold (male C57BL/6N mice; 0.3 mg/kg body weight): 52.3±1.6 mg/kg PTZ
- amplitude of mIPSCs [3]: no effect
- frequency of mIPSCs [3]: no effect
- holding currents [3]: shifted towards more negative values
- decay of mIPSCS (normalized) ([3]; compared to control, n=5): 213.8 ± 41.0%
